Source: paper PMC5872235 (2018)
Values after ≈ are worked out from the molar mass of the structure shown. Values joined by “and” are separate entries in the source; they are usually repeats but may differ in a detail not shown here. Identical values can stand only once. Like-named read-outs stand apart in the source and are kept apart here. Peptide text beside a SMILES is read from it.

Legend:
[1] = test system: S. aureus in patients with atopic dermatitis; assay type: cell-based, Staphylococcus aureus
[2] = test system: Superantigen positive Staphylococcus aureus (n = 52); experiment: microbe, parasite or virus in culture; conditions: 18 h
[3] = test system: Staphylococcus aureus strains isolated from control group; experiment: microbe, parasite or virus in culture; conditions: 18 h
[4] = test system: Staphylococcus aureus strains isolated from atopic dermatitis (AD) patients; experiment: microbe, parasite or virus in culture; conditions: 18 h
[5] = test system: Superantigen negative Staphylococcus aureus (n = 48); experiment: microbe, parasite or virus in culture; conditions: 18 h
[6] = test system: Superantigen positive Staphylococcus aureus (n = 52)
[7] = test system: Superantigen negative Staphylococcus aureus (n = 48)
S. aureus isolates = conditions: cited from earlier work
[8] = test system: S. aureus in control group; assay type: cell-based, Staphylococcus aureus
[9] = test system: Staphylococcus aureus strains isolated from control group
[10] = test system: Staphylococcus aureus strains isolated from atopic dermatitis (AD) patients
[11] = Superantigen positive (n = 52, 18 h)
[12] = Superantigen negative (n = 48, 18 h)

Compound: CCC[C@@H]1C[C@@H](C(=O)N[C@@H]([C@H]2O[C@H](SC)[C@H](O)[C@@H](O)[C@H]2O)[C@@H](C)O)N(C)C1 [Lincomycin, lincomycin]
- Resistance (%), resistant strains [1]: 37.5%
- MIC50 [2]: 1 µg/mL (≈ 2.46 µM)
- MIC90 [2]: 16 µg/mL (≈ 39.4 µM)
- MIC50 [3]: 0.5 µg/mL (≈ 1.23 µM)
- MIC90 [3]: > 512 µg/mL
- MIC50 [4]: 1 µg/mL (≈ 2.46 µM)
- MIC90 [4]: 64 µg/mL (≈ 157 µM)
- MIC50 [5]: 1 µg/mL (≈ 2.46 µM)
- MIC90 [5]: 64 µg/mL (≈ 157 µM)

Compound: CC[C@H](C)[C@H](NC(=O)CNC(=O)[C@H](CO)NC(=O)[C@H](CC(C)C)NC(=O)[C@@H](NC(=O)[C@H](CCCNC(=N)N)NC(=O)CNC(=O)[C@@H](NC(=O)[C@H](CC(C)C)NC(=O)[C@@H]1CCCN1C(=O)[C@H](CC(C)C)NC(=O)[C@@H](N)Cc1ccccc1)[C@@H](C)CC)C(C)C)C(=O)N[C@@H](CC(C)C)C(N)=O [Temporin A] (H-FLPLIGRVLSGIL-NH2)
- MIC50 [6, 11]: 8 µg/mL (≈ 5.73 µM)
- MIC90 [6, 11]: 16 µg/mL (≈ 11.5 µM)
- MIC Range [6, 11]: 2 to 64 µg/mL
- MIC50 [7, 12]: 8 µg/mL (≈ 5.73 µM)
- MIC90 [7, 12]: 32 µg/mL (≈ 22.9 µM)
- MIC Range [7, 12]: 4 to 32 µg/mL

Compound: CC[C@H]1OC(=O)[C@H](C)[C@@H](O[C@H]2C[C@@](C)(OC)[C@@H](O)[C@H](C)O2)[C@H](C)[C@@H](O[C@@H]2O[C@H](C)C[C@H](N(C)C)[C@H]2O)[C@](C)(O)C[C@@H](C)C(=O)[C@H](C)[C@@H](O)[C@]1(C)O [Erythromycin, erythromycin]
- MIC50 [2]: 0.5 µg/mL (≈ 0.681 µM)
- MIC90 [2]: > 512 µg/mL
- rate of resistance (S. aureus isolates): 14% and 18%
- MIC50 [3]: 1 µg/mL (≈ 1.36 µM)
- MIC90 [3]: > 512 µg/mL
- MIC50 [4]: 0.5 µg/mL (≈ 0.681 µM)
- MIC90 [4]: > 512 µg/mL
- MIC50 [5]: 0.5 µg/mL (≈ 0.681 µM)
- MIC90 [5]: 256 µg/mL (≈ 349 µM)

Compound: CN[C@H](CC(C)C)C(=O)N[C@H]1C(=O)N[C@@H](CC(N)=O)C(=O)N[C@H]2C(=O)N[C@H]3C(=O)N[C@H](C(=O)N[C@H](C(=O)O)c4cc(O)cc(O)c4-c4cc3ccc4O)[C@H](O)c3ccc(c(Cl)c3)Oc3cc2cc(c3O[C@@H]2O[C@H](CO)[C@@H](O)[C@H](O)[C@H]2O[C@H]2C[C@](C)(N)[C@H](O)[C@H](C)O2)Oc2ccc(cc2Cl)[C@H]1O [Vancomycin, vancomycin]
- Susceptibility of all strains, in words [8]: sensitive
- MIC Range [6]: 0.125 to 2 µg/mL
- MIC Range [7]: 0.125 to 2 µg/mL
- Resistance of isolates, in words [1]: none of the isolates were resistant
- MIC Range [9]: 0.25 to 1 µg/mL
- MIC50 [2]: 0.5 µg/mL (≈ 0.345 µM)
- MIC90 [2]: 1 µg/mL (≈ 0.69 µM)
- MIC50 [3]: 1 µg/mL (≈ 0.69 µM)
- MIC90 [3]: 1 µg/mL (≈ 0.69 µM)
- MIC Range [10]: 0.125 to 8 µg/mL
- MIC50 [4]: 0.5 µg/mL (≈ 0.345 µM)
- MIC90 [4]: 2 µg/mL (≈ 1.38 µM)
- MIC50 [5]: 1 µg/mL (≈ 0.69 µM)
- MIC90 [5]: 2 µg/mL (≈ 1.38 µM)

Compound: CC(=O)O[C@H]1C[C@@]2(C)[C@@H](C[C@@H](O)[C@H]3[C@@]4(C)CC[C@@H](O)[C@@H](C)[C@@H]4CC[C@@]32C)/C1=C(\CCC=C(C)C)C(=O)O [Fusidic acid, fusidic acid]
- MIC Range [6]: 0.0625 to 32 µg/mL
- MIC Range [7]: 0.0312 to 32 µg/mL
- Resistance (%), resistant strains [1]: 15.5%
- MIC Range [9]: 0.125 to 16 µg/mL
- MIC50 [2]: 0.125 µg/mL (≈ 0.242 µM)
- MIC90 [2]: 8 µg/mL (≈ 15.5 µM)
- S. aureus isolates resistant (S. aureus isolates): 50%
- MIC50 [3]: 1 µg/mL (≈ 1.94 µM)
- MIC90 [3]: 16 µg/mL (≈ 31 µM)
- MIC Range [10]: 0.312 to 32 µg/mL
- MIC50 [4]: 0.125 µg/mL (≈ 0.242 µM)
- MIC90 [4]: 8 µg/mL (≈ 15.5 µM)
- MIC50 [5]: 0.125 µg/mL (≈ 0.242 µM)
- MIC90 [5]: 4 µg/mL (≈ 7.74 µM)

Compound: CC[C@H](C)[C@H](NC(=O)[C@@H](NC(=O)[C@H](CO)NC(=O)[C@H](C)NC(=O)[C@@H](NC(=O)[C@H](CCCCN)NC(=O)[C@H](CCCCN)NC(=O)[C@@H](NC(=O)[C@@H](NC(=O)[C@H](CC(=O)O)NC(=O)[C@H](Cc1ccccc1)NC(=O)[C@H](CC(C)C)NC(=O)CN)C(C)C)[C@@H](C)CC)C(C)C)C(C)C)C(=O)NCC(=O)NCC(=O)N[C@@H](CC(C)C)C(N)=O [Citropin 1.1] (H-GLFDVIKKVASVIGGL-NH2)
- MIC50 [6, 11]: 16 µg/mL (≈ 9.91 µM)
- MIC90 [6, 11]: 16 µg/mL (≈ 9.91 µM)
- MIC Range [6, 11]: 1 to 64 µg/mL
- MIC50 [7, 12]: 16 µg/mL (≈ 9.91 µM)
- MIC90 [7, 12]: 32 µg/mL (≈ 19.8 µM)
- MIC Range [7, 12]: 1 to 128 µg/mL
